The values that follow come from patent US7608636B2, “Medicines for treatment and prevention of neurogenic pain” (Hamilton Pharmaceuticals, Inc., priority 2000, dated 2009).

The subject of data set [1] is ddY male mice. The data set can be described thus: Peripheral nociception test (bradykinin-induced nociceptive flexion reaction), partial sciatic nerve ligation model. It is filed as in vivo, mouse. As to the method: 17 of ddY male mice having a body weight of 13 to 15 g were used. The mice were anesthetized with pentobarbital, and skin of right hind leg of each mouse was dissected so that sciatic nerve was observed. The half of sciatic nerve fibers was bound with a suture for 9 mice among 17 mice, and only the dissection was performed for the remaining 8 animals (a control group). After the dissection site was sutured, the animals were left for 7 days (Xun Ye et al, Jpn. J. Pharmacol. 2000, Malmberg A B and Basbaum A I, Pain 1998). […] The group of mice of which sciatic nerves were bound was divided into two groups, and mice of one group were each administered with 5 μl (10 nmol) of nefiracetam and mice of the other group were each administered with 5 μl of physiological saline into spinal subarachnoid space. After the administration, the mice were each subcutaneously administered at a right hind leg footpad with physiological saline at 10 minutes and 15 minutes, 2 μl (0.1 fmol) of bradykinin at 20 minutes and 25 minutes, 2 μl (1 fmol) of bradykinin at 30 minutes and 35 minutes, 2 μl (10 fmol) of bradykinin at 40 minutes and 45 minutes, and 2 μl (100 fmol) of bradykinin at 50 minutes and 55 minutes after the administration. […]
In the mouse peripheral nociception test, nociceptive flexion reactions caused by chemical pain stimulus using bradykinin were evaluated. […]

Data set [2] concerns ddY male mice. The data set is described as follows: von Frey test, administration into spinal subarachnoid space, partial sciatic nerve ligation model. It is filed as in vivo, mouse. The conditions noted are these: for effect on escape reaction threshold (von Frey): control group subjected only to the dissection, administration into spinal subarachnoid space (10 nmol), compared to physiological saline; for effect on noxious response threshold (von Frey): neuropathic pain model (sciatic nerve bound), administration into spinal subarachnoid space, nefiracetam 1 and 10 nmol, morphine 10 nmol, oxiracetam 10 nmol. As to the method: 42 of ddY male mice having a body weight of 16 to 18 g were used. […] The mice were anesthetized with pentobarbital, and skin of right hind leg of each mouse was dissected so that sciatic nerve was observed. The half of sciatic nerve fibers was bound with a suture for 24 mice among 42 mice, and only the dissection was performed for the remaining 18 mice (a control group). After the dissection site was sutured, the animals were left for 7 days (Xun Ye et al, Jpn. J. Pharmacol. 2000, Malmberg A B and Basbaum A I, Pain 1998). […] The group of mice of which sciatic nerves were bound was divided into 4 groups, and the threshold was measured twice. The average of the values was used as a control value. Then, mice of each group were each administered with 5 μl (1 nmol) of nefiracetam, 5 μl (10 nmol) of nefiracetam, 5 μl (10 nmol) of morphine or 5 μl of physiological saline into spinal subarachnoid space. After the administration, the threshold was repeatedly measured for 60 minutes with intervals of 10 minutes. The group of mice that were subjected only to the dissection was divided into three groups, and a control value was measured in the same manner as described above. Then, mice of each group were each administered with 5 μl (10 nmol) of nefiracetam, 5 μl (10 nmol) of morphine or 5 μl of physiological saline into spinal subarachnoid space, and the threshold was measured in the same manner as described above.
In the same manner as in Example 2, 5 μl (10 nmol) of oxiracetam was administered and the threshold was measured.
In the von Frey test, the escape reactions caused by mechanical noxious stimulus, which was given for a time period of 60 minutes with intervals of 10 minutes, were evaluated as a threshold (g).

Data set [3] relates to ddY male mice. The data set is described as follows: von Frey test, oral administration of nefiracetam, partial sciatic nerve ligation model. It is filed as in vivo, mouse. To be noted: oral administration 3, 10 or 30 mg/kg. As to the method: 36 of ddY male mice having a body weight of 16 to 18 g were used. In the von Frey test, the mice were placed on a mesh, and hind leg footpads of the mice were stimulated with a von Frey filament (digital type von Frey tester MODEL 1601 (IITC INC., U.S.A.)) every 15 minutes, and the threshold values observed at the beginning of an escape reaction were represented in a unit of gram. The mice were anesthetized with pentobarbital, and skin of right hind leg of each mouse was dissected so that sciatic nerve was observed. The half of sciatic nerve fibers was bound with a suture for 24 animals among the 36 animals, and only the dissection was performed for the remaining 12 animals (a sham group). After the dissection site was sutured, experiments were performed on the 7th day (Xun Ye et al, Jpn. J. Pharmacol. 2000, Malmberg A B and Basbaum A I, Pain 1998). […] The group of mice of which sciatic nerves were bound was divided into 4 groups, and the threshold was measured twice. […] Then, mice of each group were each orally administered with 3 mg/kg, 10 mg/kg or 30 mg/kg of nefiracetam or physiological saline (10 ml/kg), and the threshold was repeatedly measured for 90 minutes with intervals of 15 minutes. The mice of the control group (the sham group) that were subjected only to the dissection were divided into two groups, and a control value was measured in the same manner as described above. […]

Data set [4] relates to ddY male mice. The data set can be described thus: Hargreaves test, diabetic neuropathic pain (streptozotocin mice). It is filed as in vivo, mouse. To be noted: mice with diabetes mellitus (streptozotocin); oral administration 3, 10 or 30 mg/kg. As to the method:
36 of ddY male mice having a body weight of 28 to 30 g were used. In the Hargreaves test, the mice were placed on a glass plate, and hind leg footpads of the mice were stimulated with radiant heat (combination type analgesia meter MODEL 336 (IITC INC., U.S.A.)) every 10 minutes. And the latent time until the beginning of an escape reaction was measured. The mice with diabetes mellitus were prepared by administering streptozotocin (200 mg/kg) dissolved in 0.1 N citrate buffer (pH 4.5) to caudal arteries, and the experiment was performed on the 7th day. […] 24 animals among the 36 animals were determined as mice with diabetes mellitus according to the method described above, and the remaining 12 mice were administered with 0.1 N citrate buffer at caudal arteries and used as a comparative control group (control group). The mice with diabetes mellitus were divided into 4 groups, and the threshold was measured twice. […] Then, mice of each group were each orally administered with 3 mg/kg, 10 mg/kg or 30 mg/kg of nefiracetam or physiological saline (10 ml/kg), and the latent time was repeatedly measured for 60 minutes with intervals of 10 minutes. The control group was divided into two groups, and a control value was measured as described above. […]

A further data set concerns male mouse. To be noted: p.o.; cited from earlier work.

Take `Cc1cccc(C)c1NC(=O)CN1CCCC1=O` [nefiracetam, N-(2,6-dimethylphenyl)-2-(2-oxo-1-pyrrolidinyl)acetamide]: the “effect on the reaction caused by bradykinin administered to footpad” value with ddY male mice [1] (control group subjected only to the dissection, without nervous disturbance, administered into spinal subarachnoid space, compared to physiological saline) was “not significant”. For the same molecule, the “bradykinin sensitive response (analgesic effect)” value in the data set on ddY male mice [1] (neuropathic pain model (sciatic nerve bound), administration into spinal subarachnoid space, bradykinin 0.1 to 100 fmol) is “completely suppressed”. In the data set on ddY male mice [2], the “effect on escape reaction threshold (von Frey)” value is given as “did not give significant effect” and the “effect on noxious response threshold (von Frey)” value was “analgesic effect in a dose-dependent manner”. The “suppressing effect on neuropathic pain by oral administration (von Frey)” value with ddY male mice [3] is “suppressing effect on neuropathic pain”. Besides, in the data set with ddY male mice [4], the “suppression effect on diabetic neuropathic pain (Hargreaves latent time)” value is “suppression effect”. Besides, the Acute toxicity in the data set on male mouse is 2,005 mg/kg.

As for `NC(=O)CN1CC(O)CC1=O` (stereo not shown) [oxiracetam, 4-hydroxy-2-oxo-1-pyrrolidineacetamide], in the data set with ddY male mice [2], the “effect on noxious response threshold (von Frey)” value is reported as “analgesic effect substantially equivalent to that of nefiracetam”.

For the molecule `CN1CC[C@]23c4c5ccc(O)c4O[C@H]2[C@@H](O)C=C[C@H]3[C@H]1C5` [morphine, reference compound], in the data set with ddY male mice [2], the “effect on escape reaction threshold (von Frey)” value is recorded as “did not give significant effect” and the “effect on noxious response threshold (von Frey)” value was “no significant effect”.
